# According to patent publication US10681909B2, “Herbicidal triazoles” (FMC Corporation, priority 2014, dated 2020):
# What was measured:
# foxtail, giant [1] = test: Test C postemergence; format: in vivo, Setaria faberii
# Outline: (§1)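 Seeds were planted in loam soil plus sand and sprayed preemergence. In parallel, potted plants in a peat-based medium were sprayed postemergence at 2 to 18 cm (1- to 4-leaf stage). Compounds were formulated in non-phytotoxic solvent with surfactant.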
# corn [2] = test: Test A postemergence; format: in vivo, Zea mays; conditions: 0 to 100 scale (0 no effect, 100 complete control), approx. 10 d
# Outline: (§2)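 Herbicidal response was scored on plants treated pre- or postemergence with surfactant-containing, non-phytotoxic solvent formulations. Preemergence meant a directed spray onto soil (loam–sand) holding sown seed; postemergence plants were at one to two leaves.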
# foxtail, giant [3] = test: Test A postemergence; format: in vivo, Setaria faberii; conditions: 0 to 100 scale (0 no effect, 100 complete control), approx. 10 d
# Outline: as §2
# ragweed = test: Test C postemergence; format: in vivo, Ambrosia elatior
# Outline: as §1
# pigweed [4] = test: Test C postemergence; format: in vivo, Amaranthus retroflexus
# Outline: as §1
# ducksalad = test: Test B flooded paddy test; format: in vivo, Heteranthera limosa; conditions: 250 g ai/ha, applied to paddy water at 2-leaf stage, visual rating after 13 to 15 d, scale 0 (no effect) to 100 (complete control)
# Outline: (§3)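 Pots were flooded to 3 cm above the soil at treatment, and compounds were applied directly into the paddy water. That depth was held throughout. After 13 to 15 d in a greenhouse, plants were rated visually against untreated controls.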
# galium = test: Test C postemergence; format: in vivo, Galium aparine
# Outline: as §1
# oilseed rape = test: Test C postemergence; format: in vivo, Brassica napus
# Outline: as §1
# chickweed = test: Test C postemergence; format: in vivo, Stellaria media
# Outline: as §1
# wheat (winter wheat) = test: Test C postemergence; format: in vivo, Triticum aestivum
# Outline: as §1
# johnsongrass = test: Test C postemergence; format: in vivo, Sorghum halepense
# Outline: as §1
# sedge, umbrella = test: Test B flooded paddy test; format: in vivo, Cyperus difformis; conditions: 250 g ai/ha, applied to paddy water at 2-leaf stage, visual rating after 13 to 15 d, scale 0 (no effect) to 100 (complete control)
# Outline: as §3
# nutsedge, yellow = test: Test C postemergence; format: in vivo, Cyperus esculentus
# Outline: as §1
# oat, wild = test: Test C postemergence; format: in vivo, Avena fatua
# Outline: as §1
# ryegrass, Italian = test: Test C postemergence; format: in vivo, Lolium multiflorum
# Outline: as §1
# corn [5] = test: Test C postemergence; format: in vivo, Zea mays
# Outline: as §1
# pigweed [6] = test: Test A postemergence; format: in vivo, Amaranthus retroflexus; conditions: 0 to 100 scale (0 no effect, 100 complete control), approx. 10 d
# Outline: as §2
# barnyardgrass [7] = test: Test A postemergence; format: in vivo, Echinochloa crus-galli; conditions: 0 to 100 scale (0 no effect, 100 complete control), approx. 10 d
# Outline: as §2
# lambsquarters = test: Test C postemergence; format: in vivo, Chenopodium album
# Outline: as §1
# rice = test: Test B flooded paddy test; format: in vivo, Oryza sativa; conditions: 250 g ai/ha, applied to paddy water at 2-leaf stage, visual rating after 13 to 15 d, scale 0 (no effect) to 100 (complete control)
# Outline: as §3
# barnyardgrass [8] = test: Test B flooded paddy test; format: in vivo, Echinochloa crus-galli; conditions: 250 g ai/ha, applied to paddy water at 2-leaf stage, visual rating after 13 to 15 d, scale 0 (no effect) to 100 (complete control)
# Outline: as §3
smiles,measurement,setting,value
Fc1ccc(-c2nc(OCC(F)(F)F)n(Cc3ccnc(C(F)(F)F)c3)n2)cc1 [Compound 30],Plant response rating (scale of 0 to 100 where 0 is no effect and 100 is complete control),"foxtail, giant [1]; 31 g ai/ha",5
same,Plant response rating (scale of 0 to 100 where 0 is no effect and 100 is complete control),"foxtail, giant [1]; 62 g ai/ha",10
same,Plant response rating (scale of 0 to 100 where 0 is no effect and 100 is complete control),"foxtail, giant [1]; 125 g ai/ha",25
same,Plant response rating (scale of 0 to 100 where 0 is no effect and 100 is complete control),"foxtail, giant [1]; 250 g ai/ha",25
same,"Plant response rating, Corn",corn [2]; 125 g ai/ha,40
same,"Plant response rating, Corn",corn [2]; 500 g ai/ha,50
same,"Plant response rating, Foxtail, Giant","foxtail, giant [3]; 125 g ai/ha",80
same,"Plant response rating, Foxtail, Giant","foxtail, giant [3]; 500 g ai/ha",90
same,Plant response rating (scale of 0 to 100 where 0 is no effect and 100 is complete control),ragweed; 31 g ai/ha,65
same,Plant response rating (scale of 0 to 100 where 0 is no effect and 100 is complete control),ragweed; 62 g ai/ha,55
same,Plant response rating (scale of 0 to 100 where 0 is no effect and 100 is complete control),ragweed; 125 g ai/ha,65
same,Plant response rating (scale of 0 to 100 where 0 is no effect and 100 is complete control),ragweed; 250 g ai/ha,85
same,Plant response rating (scale of 0 to 100 where 0 is no effect and 100 is complete control),pigweed [4]; 31 g ai/ha,95
same,Plant response rating (scale of 0 to 100 where 0 is no effect and 100 is complete control),pigweed [4]; 62 g ai/ha,95
same,Plant response rating (scale of 0 to 100 where 0 is no effect and 100 is complete control),pigweed [4]; 125 g ai/ha,98
same,Plant response rating (scale of 0 to 100 where 0 is no effect and 100 is complete control),pigweed [4]; 250 g ai/ha,98
same,"Plant response rating, Ducksalad, Flood",ducksalad,80
same,Plant response rating (scale of 0 to 100 where 0 is no effect and 100 is complete control),galium; 31 g ai/ha,80
same,Plant response rating (scale of 0 to 100 where 0 is no effect and 100 is complete control),galium; 62 g ai/ha,80
same,Plant response rating (scale of 0 to 100 where 0 is no effect and 100 is complete control),galium; 125 g ai/ha,90
same,Plant response rating (scale of 0 to 100 where 0 is no effect and 100 is complete control),galium; 250 g ai/ha,90
same,Plant response rating (scale of 0 to 100 where 0 is no effect and 100 is complete control),"oilseed rape; Oilsee Rape, 250 g ai/ha",95
same,Plant response rating (scale of 0 to 100 where 0 is no effect and 100 is complete control),"oilseed rape; Oilseed Rape, 31 g ai/ha",35
same,Plant response rating (scale of 0 to 100 where 0 is no effect and 100 is complete control),"oilseed rape; Oilseed Rape, 62 g ai/ha",80
same,Plant response rating (scale of 0 to 100 where 0 is no effect and 100 is complete control),"oilseed rape; Oilseed Rape, 125 g ai/ha",95
same,Plant response rating (scale of 0 to 100 where 0 is no effect and 100 is complete control),chickweed; 31 g ai/ha,95
same,Plant response rating (scale of 0 to 100 where 0 is no effect and 100 is complete control),chickweed; 62 g ai/ha,95
same,Plant response rating (scale of 0 to 100 where 0 is no effect and 100 is complete control),chickweed; 125 g ai/ha,100
same,Plant response rating (scale of 0 to 100 where 0 is no effect and 100 is complete control),chickweed; 250 g ai/ha,100
same,Plant response rating (scale of 0 to 100 where 0 is no effect and 100 is complete control),wheat (winter wheat); 31 g ai/ha,5
same,Plant response rating (scale of 0 to 100 where 0 is no effect and 100 is complete control),wheat (winter wheat); 62 g ai/ha,5
same,Plant response rating (scale of 0 to 100 where 0 is no effect and 100 is complete control),wheat (winter wheat); 125 g ai/ha,15
same,Plant response rating (scale of 0 to 100 where 0 is no effect and 100 is complete control),wheat (winter wheat); 250 g ai/ha,20
same,Plant response rating (scale of 0 to 100 where 0 is no effect and 100 is complete control),johnsongrass; 31 g ai/ha,30
same,Plant response rating (scale of 0 to 100 where 0 is no effect and 100 is complete control),johnsongrass; 62 g ai/ha,100
same,Plant response rating (scale of 0 to 100 where 0 is no effect and 100 is complete control),johnsongrass; 125 g ai/ha,35
same,Plant response rating (scale of 0 to 100 where 0 is no effect and 100 is complete control),johnsongrass; 250 g ai/ha,30
same,"Plant response rating, Sedge, Umbrella, Flood","sedge, umbrella",90
same,Plant response rating (scale of 0 to 100 where 0 is no effect and 100 is complete control),"nutsedge, yellow; 31 g ai/ha",5
same,Plant response rating (scale of 0 to 100 where 0 is no effect and 100 is complete control),"nutsedge, yellow; 62 g ai/ha",5
same,Plant response rating (scale of 0 to 100 where 0 is no effect and 100 is complete control),"nutsedge, yellow; 125 g ai/ha",10
same,Plant response rating (scale of 0 to 100 where 0 is no effect and 100 is complete control),"nutsedge, yellow; 250 g ai/ha",15
same,Plant response rating (scale of 0 to 100 where 0 is no effect and 100 is complete control),"oat, wild; 31 g ai/ha",25
same,Plant response rating (scale of 0 to 100 where 0 is no effect and 100 is complete control),"oat, wild; 62 g ai/ha",15
same,Plant response rating (scale of 0 to 100 where 0 is no effect and 100 is complete control),"oat, wild; 125 g ai/ha",30
same,Plant response rating (scale of 0 to 100 where 0 is no effect and 100 is complete control),"oat, wild; 250 g ai/ha",45
same,Plant response rating (scale of 0 to 100 where 0 is no effect and 100 is complete control),"ryegrass, Italian; 31 g ai/ha",20
same,Plant response rating (scale of 0 to 100 where 0 is no effect and 100 is complete control),"ryegrass, Italian; 62 g ai/ha",25
same,Plant response rating (scale of 0 to 100 where 0 is no effect and 100 is complete control),"ryegrass, Italian; 125 g ai/ha",30
same,Plant response rating (scale of 0 to 100 where 0 is no effect and 100 is complete control),"ryegrass, Italian; 250 g ai/ha",50
same,Plant response rating (scale of 0 to 100 where 0 is no effect and 100 is complete control),corn [5]; 31 g ai/ha,15
same,Plant response rating (scale of 0 to 100 where 0 is no effect and 100 is complete control),corn [5]; 62 g ai/ha,10
same,Plant response rating (scale of 0 to 100 where 0 is no effect and 100 is complete control),corn [5]; 125 g ai/ha,25
same,Plant response rating (scale of 0 to 100 where 0 is no effect and 100 is complete control),corn [5]; 250 g ai/ha,20
same,"Plant response rating, Pigweed",pigweed [6]; 125 g ai/ha,100
same,"Plant response rating, Pigweed",pigweed [6]; 500 g ai/ha,100
same,"Plant response rating, Barnyardgrass",barnyardgrass [7]; 125 g ai/ha,80
same,"Plant response rating, Barnyardgrass",barnyardgrass [7]; 500 g ai/ha,90
same,Plant response rating (scale of 0 to 100 where 0 is no effect and 100 is complete control),lambsquarters; 31 g ai/ha,70
same,Plant response rating (scale of 0 to 100 where 0 is no effect and 100 is complete control),lambsquarters; 62 g ai/ha,85
same,Plant response rating (scale of 0 to 100 where 0 is no effect and 100 is complete control),lambsquarters; 125 g ai/ha,95
same,Plant response rating (scale of 0 to 100 where 0 is no effect and 100 is complete control),lambsquarters; 250 g ai/ha,95
same,"Plant response rating, Rice, Flood",rice,30
same,"Plant response rating, Barnyardgrass, Flood",barnyardgrass [8],30
